Measurements reported in paper PMC7901654, “Bioisosteric Discovery of NPA101.3, a Second-Generation RET/VEGFR2 Inhibitor Optimized for Single-Agent Polypharmacology” (Journal of Medicinal Chemistry, 2020).

Experiments:
[1] = LCMS plasma analysis (in vivo metabolism study); parameters: species or system mouse; conditions: 10 mg/kg oral, mice, 1 h and 4 h after dosing, LC-MS
Method: In vivo target (RET and VEGFR2) inhibition was studied by treating animals grafted with NIH3T3 RET/C634Y cells at different doses (0.3, 1, or 3 mg/kg/day p.o.) of NPA101.3 for 2 days and then performing Western blot analysis on protein extracts. […] Then, to determine antitumorigenic activity and to better distinguish RET- and VEGFR2-mediated effects, we tested NPA101.3 in nude mice transplanted with NIH3T3 cells transformed by either RET/C634Y or HRAS/G12V. Before tumors appeared, animals were treated daily with NPA101.3 (1.0, 3.0, or 10.0 mg/kg/day) or left untreated. […] Still, VEGFR2 inhibition was detected also in RAS-driven tumors, an effect that might explain the, albeit reduced, effect of the drug on their growth (Figure S13). Importantly, as predicted, no trace of NPA101.3 demethyl metabolites was detected after 1 or 4 h from oral dosing in mice (Figure S14). […]
After thawing, cells were maintained in culture using minimum essential medium supplemented with 10% foetal bovine serum, 1% non-essential amino acids, 1% sodium pyruvate, 2mM L-glutamine, 1% pen-strep, 15μg/ml blasticidin and 100 μg/ml hygromycin. hERG channel expression induction was obtained by adding 10 μg/ml tetracycline 48 h before the experiment. […] Current amplitude was measured and […]
Supplementary Figure S14: In vivo metabolism study. […] NPA101.3 drug peak was detected at 3.61 min (m/z = 529) at either time point. […]

[2] = system: Nthy-ori-3.1, BCPAP, 8505-C, PC-9, A549, CALU-1; test: SHC/MAPK signalling in control cell lines lacking RET oncogenes; type: cell-based, human; conditions: 2 h treatment
Method: NPA101.3 inhibited RET autophosphorylation and signaling along the SHC/MAPK pathway in human cancer cell lines endogenously expressing RET oncogenic variants, including MTC cell lines, TT (RET/C634W) and MZ-CRC-1 (RET/M918T), and PTC cell line TPC-1 (CCDC6-RET); in the lung adenocarcinoma cell line Lc-2/ad (CCDC6-RET), only RET and SHC (but not MAPK) dephosphorylation was detectable (Figure S4).
Protein lysates were prepared according to standard procedures. Briefly, cells were lysed in a buffer containing 50 mM N-2-hydroxyethylpiperazine-N′-2-ethanesulfonic acid (HEPES; pH 7.5), 1% (v/v) Triton X-100, 150 mM NaCl, 5 mM EGTA, 50 mM NaF, 20 mM sodium pyrophosphate, 1 mM sodium vanadate, 2 mM phenylmethanesulfonyl fluoride (PMSF), and 1 μg/mL aprotinin. Lysates were clarified by centrifugation at 10000g for 15 min. […] Immune complexes were detected with the enhanced chemiluminescence kit (Amersham Pharmacia Biotech, Little Chalfont, U.K.). Anti-phospho-SHC (#Y317), which recognizes SHC protein when phosphorylated on Y317, was from Upstate Biotechnology Inc. (Lake Placid, NY). Anti-SHC (H-108) was from Santa Cruz Biotechnology (Santa Cruz, CA). Anti-MAPK (9101) and anti-phospho-MAPK (9102), specific for p42/44MAPK (ERK1/2) phosphorylated on Thr202/Tyr204, antibodies were from Cell Signaling Technologies (Danvers, MA). […]

CC(C)(C)c1cc(NC(=O)Cc2ccc(-n3cnc4cc(-c5ccc(S(C)(=O)=O)cc5)ccc43)cc2)no1 [NPA101.3]
demethyl metabolites in plasma [1]: no trace | effect on SHC/MAPK signaling [2]: Virtually no effect
